According to patent US9186360B2, “Treatment of respiratory disorders using TRPA1 antagonists” (GLENMARK PHARMACEUTICALS S.A., priority 2011, dated 2015):

What was measured:
Type in all cases: cell-based
human TRPA1 = human TRPA1 (Homo sapiens (Human), UniProt O75762); assay: 45Calcium uptake assay, AITC induced, human TRPA1 expressing CHO cells; conditions: AITC 30 micromolar, read-out: IC50 values hTRPA1
Experimental: As contemplated herein, the IC50 value is measured by the following method. The inhibition of TRPA1 receptor activation is measured as inhibition of allylisothiocyanate (AITC) induced cellular uptake of radioactive calcium. Test solution of test compound is prepared in a suitable solvent using appropriate method. Human TRPA1 expressing CHO cells are grown in suitable medium. Cells are treated with test compounds followed by addition of AITC. Cells are washed and lysed. Radioactivity in the lysate is measured in Packard Top count after addition of liquid scintillant. The concentration response curves for compounds are plotted as a % of maximal response obtained in the absence of test antagonist, and the IC50 values are calculated from such concentration response curve by nonlinear regression analysis using GraphPad PRISM software.
The illustrative TRPA1 antagonists of the present invention were screened for TRPA1 activity according to a modified procedure described in Tóth, A. et al., Life Sciences 2003, 73, 487-498. The screening of the compounds can be carried out by other methods and procedures known to persons skilled in the art.
Screening for TRPA1 Antagonist Using the 45Calcium Uptake Assay:
The inhibition of TRPA1 receptor activation was measured as inhibition of allylisothiocyanate (AITC) induced cellular uptake of radioactive calcium. Test compounds were dissolved in DMSO to prepare 10 mM stock solution and then diluted using plain medium with 0.1% BSA and 1.8 mM CaCl2 to get desired concentration. Final concentration of DMSO in the reaction was 0.5% (v/v). Human TRPA1 expressing CHO cells were grown in F-12 DMEM medium with 10% FBS, 1% penicillin-streptomycin solution, and 400 μg/ml of G-418. Cells were seeded 24 h prior to the assay in 96 well plates so as to get ˜50,000 cells per well on the day of experiment. Cells were treated with test compounds for 10 min followed by addition of AITC at a final concentration of 30 micromolar and 5 μCi/ml 45Ca+2 for 3 min at 25° C. Cells were washed and lysed using buffer containing 1% Triton X-100, 0.1% deoxycholate and 0.1% SDS. Radioactivity in the lysate was measured in Packard Top count after addition of liquid scintillant.
Concentration response curves were plotted as a % of maximal response obtained in the absence of test antagonist. IC50 value was calculated from concentration response curve by nonlinear regression analysis using GraphPad PRISM software.

human TRPV1 = human TRPV1 (Homo sapiens (Human), UniProt Q8NER1); assay: Radiometric calcium selectivity assay, CHO cells expressing human TRPV1 (capsaicin); conditions: read-out: IC50 values hTRPV1
Experimental: (§1) For selectivity screening, CHO cells stably expressing human TRPV1, human TRPV3, human TRPV4, or human TRPM8 were generated in-house and maintained in DMEM F-12 supplemented with 10% FBS and G418. All the cell types were cultured at 37° C. in humidified air containing 5% CO2. Radiometric calcium assay was performed as described above with some minor modifications. Assay was carried out in total volume of 200 μl at 30° C. (for TRPV1), 32° C. (for TRPV3) and 25° C. (for TRPV4 and TRPM8). Agonists used for selectivity screening of the different TRPs are: Capsaicin for TRPV1,2-aminoethoxydiphenyl borate for TRPV3, 4α-phorbol 12,13-didecanoate for TRPV4 and Icilin for TRPM8. After 2-5 minutes of agonist treatment, drug was washed and lysed in lysis buffer as mentioned above. Radioactivity in the lysate was measured in Packard Top count after addition of liquid scintillant.

human TRPV3 = human TRPV3 (Homo sapiens (Human), UniProt Q8NET8); assay: Radiometric calcium selectivity assay, CHO cells expressing human TRPV3 (2-aminoethoxydiphenyl borate); conditions: read-out: IC50 values hTRPV3
Experimental: as §1

human TRPV4 = human TRPV4 (Homo sapiens (Human), UniProt Q9HBA0); assay: Radiometric calcium selectivity assay, CHO cells expressing human TRPV4 (4α-phorbol 12,13-didecanoate); conditions: read-out: IC50 values hTRPV4
Experimental: as §1

human TRPM8 = human TRPM8 (Homo sapiens (Human), UniProt Q7Z2W7); assay: Radiometric calcium selectivity assay, CHO cells expressing human TRPM8 (icilin); conditions: read-out: IC50 values hTRPM8
Experimental: as §1

Sequence of human TRPM8 (Q7Z2W7 whole entry): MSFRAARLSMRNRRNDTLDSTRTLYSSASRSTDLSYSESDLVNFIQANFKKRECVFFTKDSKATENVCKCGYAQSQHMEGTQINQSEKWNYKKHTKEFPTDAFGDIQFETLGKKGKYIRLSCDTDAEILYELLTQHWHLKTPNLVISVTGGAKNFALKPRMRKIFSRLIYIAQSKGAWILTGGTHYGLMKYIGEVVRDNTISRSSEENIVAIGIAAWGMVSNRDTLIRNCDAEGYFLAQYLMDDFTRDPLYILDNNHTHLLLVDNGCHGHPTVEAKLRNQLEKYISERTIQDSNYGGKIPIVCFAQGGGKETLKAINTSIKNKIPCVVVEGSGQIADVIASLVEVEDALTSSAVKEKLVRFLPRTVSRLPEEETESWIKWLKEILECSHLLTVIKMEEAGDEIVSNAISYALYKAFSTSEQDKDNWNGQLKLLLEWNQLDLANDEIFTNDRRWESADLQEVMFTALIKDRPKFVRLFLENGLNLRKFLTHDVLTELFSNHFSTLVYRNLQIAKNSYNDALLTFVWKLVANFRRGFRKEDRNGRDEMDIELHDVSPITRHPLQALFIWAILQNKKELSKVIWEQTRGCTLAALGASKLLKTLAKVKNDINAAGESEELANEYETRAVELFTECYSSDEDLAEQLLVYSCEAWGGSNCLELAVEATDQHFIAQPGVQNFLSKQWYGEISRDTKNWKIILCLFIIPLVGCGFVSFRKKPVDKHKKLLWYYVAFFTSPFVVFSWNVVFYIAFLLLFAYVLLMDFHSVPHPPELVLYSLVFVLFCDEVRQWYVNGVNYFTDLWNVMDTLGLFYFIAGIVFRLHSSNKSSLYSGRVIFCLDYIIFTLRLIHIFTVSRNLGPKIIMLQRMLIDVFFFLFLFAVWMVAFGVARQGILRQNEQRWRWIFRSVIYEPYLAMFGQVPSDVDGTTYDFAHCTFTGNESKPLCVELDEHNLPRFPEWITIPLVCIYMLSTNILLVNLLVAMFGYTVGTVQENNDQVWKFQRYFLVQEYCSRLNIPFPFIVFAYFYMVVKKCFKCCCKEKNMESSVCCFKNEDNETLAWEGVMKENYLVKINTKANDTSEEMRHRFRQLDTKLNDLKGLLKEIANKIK
Sequence of human TRPA1 (O75762 whole entry): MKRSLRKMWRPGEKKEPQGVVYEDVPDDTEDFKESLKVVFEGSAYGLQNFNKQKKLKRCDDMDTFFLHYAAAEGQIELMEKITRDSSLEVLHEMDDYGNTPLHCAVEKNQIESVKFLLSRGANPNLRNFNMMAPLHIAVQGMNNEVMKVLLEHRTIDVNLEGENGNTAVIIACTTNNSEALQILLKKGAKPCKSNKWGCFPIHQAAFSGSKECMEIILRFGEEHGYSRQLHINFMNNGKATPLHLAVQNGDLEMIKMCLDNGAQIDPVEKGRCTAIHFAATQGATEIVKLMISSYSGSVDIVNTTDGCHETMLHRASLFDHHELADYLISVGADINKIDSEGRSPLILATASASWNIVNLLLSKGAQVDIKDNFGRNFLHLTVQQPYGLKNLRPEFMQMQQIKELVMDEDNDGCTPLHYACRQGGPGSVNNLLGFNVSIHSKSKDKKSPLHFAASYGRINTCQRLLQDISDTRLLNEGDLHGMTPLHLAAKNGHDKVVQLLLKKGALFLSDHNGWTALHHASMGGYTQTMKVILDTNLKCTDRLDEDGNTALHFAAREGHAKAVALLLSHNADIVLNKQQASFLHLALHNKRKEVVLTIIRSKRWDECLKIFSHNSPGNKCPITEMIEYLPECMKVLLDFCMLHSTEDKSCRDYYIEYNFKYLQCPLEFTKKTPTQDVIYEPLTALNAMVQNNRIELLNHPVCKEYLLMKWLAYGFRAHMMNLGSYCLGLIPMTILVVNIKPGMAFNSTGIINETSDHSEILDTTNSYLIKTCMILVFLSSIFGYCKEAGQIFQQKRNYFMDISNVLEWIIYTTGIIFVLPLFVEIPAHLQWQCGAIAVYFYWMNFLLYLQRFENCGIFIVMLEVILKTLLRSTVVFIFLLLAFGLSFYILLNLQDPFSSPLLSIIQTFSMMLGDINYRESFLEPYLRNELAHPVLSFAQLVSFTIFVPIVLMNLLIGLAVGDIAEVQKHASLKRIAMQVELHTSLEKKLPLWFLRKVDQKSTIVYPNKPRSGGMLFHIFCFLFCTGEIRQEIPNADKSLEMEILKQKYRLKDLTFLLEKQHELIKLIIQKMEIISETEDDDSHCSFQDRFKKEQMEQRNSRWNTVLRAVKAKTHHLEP
Sequence of human TRPV1 (Q8NER1 whole entry): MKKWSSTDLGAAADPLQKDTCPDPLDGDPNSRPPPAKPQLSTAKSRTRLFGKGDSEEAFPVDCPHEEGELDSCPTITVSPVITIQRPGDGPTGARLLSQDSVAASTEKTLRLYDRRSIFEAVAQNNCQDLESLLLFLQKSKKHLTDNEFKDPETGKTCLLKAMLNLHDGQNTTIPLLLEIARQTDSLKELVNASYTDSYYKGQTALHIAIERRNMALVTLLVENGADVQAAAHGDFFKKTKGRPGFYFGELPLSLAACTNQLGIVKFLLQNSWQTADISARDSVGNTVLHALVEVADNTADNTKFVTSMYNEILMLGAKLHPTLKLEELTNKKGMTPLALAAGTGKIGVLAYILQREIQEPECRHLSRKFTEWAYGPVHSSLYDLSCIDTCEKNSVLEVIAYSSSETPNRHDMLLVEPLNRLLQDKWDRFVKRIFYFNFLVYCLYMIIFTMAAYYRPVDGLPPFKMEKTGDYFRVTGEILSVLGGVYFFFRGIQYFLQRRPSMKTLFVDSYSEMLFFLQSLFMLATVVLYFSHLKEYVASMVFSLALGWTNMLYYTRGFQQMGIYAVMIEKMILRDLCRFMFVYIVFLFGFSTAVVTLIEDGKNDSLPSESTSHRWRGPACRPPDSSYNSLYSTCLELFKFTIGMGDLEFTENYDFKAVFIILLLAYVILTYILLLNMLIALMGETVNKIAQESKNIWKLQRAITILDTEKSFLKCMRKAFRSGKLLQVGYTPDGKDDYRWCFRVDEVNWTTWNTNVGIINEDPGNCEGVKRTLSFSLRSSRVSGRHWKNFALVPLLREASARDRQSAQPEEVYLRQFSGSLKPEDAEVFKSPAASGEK
Sequence of human TRPV4 (Q9HBA0 whole entry): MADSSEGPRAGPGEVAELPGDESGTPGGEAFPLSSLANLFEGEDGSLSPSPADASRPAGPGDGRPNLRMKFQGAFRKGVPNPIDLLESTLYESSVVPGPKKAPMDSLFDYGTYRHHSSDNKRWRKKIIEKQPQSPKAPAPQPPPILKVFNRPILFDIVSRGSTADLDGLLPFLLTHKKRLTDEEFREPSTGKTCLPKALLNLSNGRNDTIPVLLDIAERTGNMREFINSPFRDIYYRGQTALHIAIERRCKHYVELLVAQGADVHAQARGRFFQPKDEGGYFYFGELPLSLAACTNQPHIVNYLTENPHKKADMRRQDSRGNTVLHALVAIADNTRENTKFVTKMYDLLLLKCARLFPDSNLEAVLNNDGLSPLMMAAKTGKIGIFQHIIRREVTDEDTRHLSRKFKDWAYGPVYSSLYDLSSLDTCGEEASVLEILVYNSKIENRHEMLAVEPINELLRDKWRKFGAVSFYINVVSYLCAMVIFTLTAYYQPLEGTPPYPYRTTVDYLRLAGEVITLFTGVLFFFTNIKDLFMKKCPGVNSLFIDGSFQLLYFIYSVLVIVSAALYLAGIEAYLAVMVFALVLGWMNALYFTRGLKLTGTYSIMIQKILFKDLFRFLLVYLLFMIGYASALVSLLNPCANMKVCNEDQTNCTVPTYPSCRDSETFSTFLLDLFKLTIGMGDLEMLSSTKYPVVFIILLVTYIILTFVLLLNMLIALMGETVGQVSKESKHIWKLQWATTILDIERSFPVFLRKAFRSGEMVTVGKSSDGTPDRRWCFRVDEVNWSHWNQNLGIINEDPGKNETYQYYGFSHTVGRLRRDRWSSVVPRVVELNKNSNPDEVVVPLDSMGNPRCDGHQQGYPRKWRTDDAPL
Sequence of human TRPV3 (Q8NET8 whole entry): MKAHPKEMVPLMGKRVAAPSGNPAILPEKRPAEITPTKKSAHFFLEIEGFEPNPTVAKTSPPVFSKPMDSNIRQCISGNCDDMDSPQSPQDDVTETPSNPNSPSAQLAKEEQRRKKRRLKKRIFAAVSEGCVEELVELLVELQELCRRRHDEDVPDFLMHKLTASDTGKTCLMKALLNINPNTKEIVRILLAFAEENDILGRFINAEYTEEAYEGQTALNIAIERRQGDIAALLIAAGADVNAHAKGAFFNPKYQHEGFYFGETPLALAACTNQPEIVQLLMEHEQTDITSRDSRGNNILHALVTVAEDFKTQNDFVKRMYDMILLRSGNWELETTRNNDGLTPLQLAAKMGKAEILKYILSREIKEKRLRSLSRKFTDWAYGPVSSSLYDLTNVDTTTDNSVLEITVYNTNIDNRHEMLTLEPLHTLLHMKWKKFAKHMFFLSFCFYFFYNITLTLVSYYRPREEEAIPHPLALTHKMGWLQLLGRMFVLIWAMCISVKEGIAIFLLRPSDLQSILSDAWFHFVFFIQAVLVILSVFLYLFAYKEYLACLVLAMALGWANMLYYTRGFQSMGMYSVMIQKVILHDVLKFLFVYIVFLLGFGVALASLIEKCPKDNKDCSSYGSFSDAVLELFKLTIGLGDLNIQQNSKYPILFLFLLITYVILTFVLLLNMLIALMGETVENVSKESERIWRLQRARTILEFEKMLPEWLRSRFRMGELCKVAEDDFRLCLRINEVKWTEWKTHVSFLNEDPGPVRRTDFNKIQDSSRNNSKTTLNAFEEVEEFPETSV

Row | SMILES | IC50 (human TRPA1) [µM] | IC50 (human TRPV1) [µM] | IC50 (human TRPV3) [µM] | IC50 (human TRPV4) [µM] | IC50 (human TRPM8) [µM]
1 | Cc1sc2c(c1CC(=O)Nc1nc(-c3ccc(Cl)c(Cl)c3)cs1)c(=O)n(C)c(=O)n2C [Compound 47] | 0.0336 | > 10 | > 10 | > 1 | > 10
2 | CCc1sc2c(c1CC(=O)Nc1nc(-c3cc(F)c(OC(F)F)c(F)c3)cs1)c(=O)n(C)c(=O)n2C [Compound 48] | 0.0181 | > 10 | > 10 | > 10 | > 10
3 | CCc1sc2c(c1CC(=O)Nc1nc(-c3ccc(C(F)(F)F)c(F)c3)cs1)c(=O)n(C)c(=O)n2C [Compound 50] | 0.0167 | > 10 | > 1 | 8.89 | > 10
4 | CC(C)COc1c(F)cc(-c2csc(NC(=O)Cc3coc4c3c(=O)n(C)c(=O)n4C)n2)cc1F [Compound 53] | 0.0182 | > 10 | > 10 | > 1 | > 10
5 | Cn1c(=O)c2c(CC(=O)Nc3nc(-c4ccc(C(F)(F)F)c(F)c4)cs3)coc2n(C)c1=O [Compound 54] | 0.0177 | > 10 | > 1 | > 1 | > 10
6 | Cn1c(=O)c2c(CC(=O)Nc3nc(-c4cc(F)cc(C(F)(F)F)c4)cs3)coc2n(C)c1=O [Compound 55] | 0.00215 | > 10 | > 1 | > 1 | > 10
7 | Cn1c(=O)c2c(CC(=O)Nc3nc(-c4cc(F)c(CCC(F)(F)F)c(F)c4)cs3)coc2n(C)c1=O [Compound 56] | 0.00338 | > 10 | > 10 | > 1 | > 10
8 | Cn1c(=O)c2c(CC(=O)Nc3nc(-c4cc(Cl)c(OCC(F)(F)F)c(Cl)c4)cs3)coc2n(C)c1=O [Compound 57] | 0.00145 | > 10 | > 10 | > 1 | > 10
9 | Cn1c(=O)c2c(CC(=O)Nc3nc(-c4ccc(F)c(C(F)(F)F)c4)cs3)coc2n(C)c1=O [Compound 58] | 0.0119 | > 10 | > 1 | > 1 | > 10
10 | Cn1c(=O)c2c(CC(=O)Nc3nc(-c4cc(F)c(OCC(F)(F)F)c(Cl)c4)cs3)coc2n(C)c1=O [Compound 60] | 0.00354 | > 10 | > 10 | > 1 | > 10
11 | Cc1oc2c(c1CC(=O)Nc1nc(-c3ccc(C(F)(F)F)cc3F)cs1)c(=O)n(C)c(=O)n2C [Compound 65] | 0.00665 | > 10 | > 1 | > 1 | > 10
12 | Cc1oc2c(c1CC(=O)Nc1nc(-c3ccc(F)c(C(F)(F)F)c3)cs1)c(=O)n(C)c(=O)n2C [Compound 69] | 0.0071 | > 10 | > 1 | > 1 | > 10
13 | Cc1oc2c(c1CC(=O)Nc1nc(-c3ccc(OC(F)(F)F)c(F)c3)cs1)c(=O)n(C)c(=O)n2C [Compound 70] | 0.0126 | > 10 | > 1 | > 1 | > 10
14 | Cc1oc2c(c1CC(=O)Nc1nc(-c3cc(F)c(C(F)(F)F)c(F)c3)cs1)c(=O)n(C)c(=O)n2C [Compound 72] | 0.00416 | > 10 | > 1 | > 1 | > 10
15 | Cn1c(=O)c2c(CC(=O)Nc3nc(-c4cccc(C(F)(F)F)c4F)cs3)nsc2n(C)c1=O [Compound 79] | 0.00529 | > 10 | > 1 | 0.826 | > 10

Second part, the compound after the results:

Row | IC50 (human TRPA1) [µM] | IC50 (human TRPV1) [µM] | IC50 (human TRPV3) [µM] | IC50 (human TRPV4) [µM] | IC50 (human TRPM8) [µM] | SMILES
16 | 0.0413 | > 10 | > 10 | > 10 | > 1 | CC(C)c1sc2c(c1CC(=O)Nc1nc(-c3ccc(C(F)(F)F)c(F)c3)cs1)c(=O)n(C)c(=O)n2C [Compound 46]
17 | 0.00398 | > 10 | > 10 | > 10 | > 10 | CCc1sc2c(c1CC(=O)Nc1nc(-c3cc(F)c(OCC(F)(F)F)c(F)c3)cs1)c(=O)n(C)c(=O)n2C [Compound 49]
18 | 0.00221 | > 10 | > 1 | 2.83 | > 10 | Cn1c(=O)c2c(CC(=O)Nc3nc(-c4cccc(C(F)(F)F)c4F)cs3)coc2n(C)c1=O [Compound 59]
19 | 0.00293 | > 10 | > 10 | > 10 | > 10 | Cc1oc2c(c1CC(=O)Nc1nc(-c3cc(F)cc(C(F)(F)F)c3)cs1)c(=O)n(C)c(=O)n2C [Compound 61]
20 | 0.00904 | > 10 | > 1 | > 10 | > 10 | Cc1oc2c(c1CC(=O)Nc1nc(-c3ccc(Cl)c(OC(F)(F)F)c3)cs1)c(=O)n(C)c(=O)n2C [Compound 63]
21 | 0.00452 | > 10 | > 1 | > 10 | > 10 | Cc1oc2c(c1CC(=O)Nc1nc(-c3ccc(F)c(C(F)(F)F)c3F)cs1)c(=O)n(C)c(=O)n2C [Compound 64]
22 | 0.00363 | > 10 | > 10 | > 10 | > 10 | Cc1oc2c(c1CC(=O)Nc1nc(-c3cc(F)c(OCC(C)(C)C)c(F)c3)cs1)c(=O)n(C)c(=O)n2C [Compound 66]
23 | 0.0136 | > 10 | > 1 | > 10 | > 10 | Cc1oc2c(c1CC(=O)Nc1nc(-c3cccc(C(F)(F)F)c3F)cs1)c(=O)n(C)c(=O)n2C [Compound 67]
24 | 0.00484 | > 10 | > 1 | > 10 | > 10 | Cc1oc2c(c1CC(=O)Nc1nc(-c3ccc(F)c(OC(F)(F)F)c3)cs1)c(=O)n(C)c(=O)n2C [Compound 68]
25 | 0.00318 | > 10 | > 1 | > 10 | > 10 | Cc1oc2c(c1CC(=O)Nc1nc(-c3ccc(Cl)c(C(F)(F)F)c3)cs1)c(=O)n(C)c(=O)n2C [Compound 71]
26 | 0.00529 | > 10 | > 10 | > 10 | > 10 | Cc1oc2c(c1CC(=O)Nc1nc(-c3ccc(OCC(F)(F)F)c(Cl)c3)cs1)c(=O)n(C)c(=O)n2C [Compound 74]
27 | 0.00334 | > 10 | > 10 | > 10 | > 10 | Cc1oc2c(c1CC(=O)Nc1nc(-c3cc(Cl)c(OCC(C)C)c(Cl)c3)cs1)c(=O)n(C)c(=O)n2C [Compound 75]
28 | 0.00402 | 8.01 | 2.5 | 8.92 | > 10 | Cc1oc2c(c1CC(=O)Nc1nc(-c3ccc(C(F)(F)F)c(F)c3F)cs1)c(=O)n(C)c(=O)n2C [Compound 76]
29 | 0.0056 | > 10 | 1.77 | 0.553 | > 10 | Cn1c(=O)c2c(CC(=O)Nc3nc(-c4ccc(F)c(C(F)(F)F)c4F)cs3)nsc2n(C)c1=O [Compound 77]
30 | 0.0106 | > 10 | > 1 | 0.153 | > 10 | Cn1c(=O)c2c(CC(=O)Nc3nc(-c4ccc(C(F)(F)F)cc4F)cs3)nsc2n(C)c1=O [Compound 78]
31 | 0.00628 | > 10 | > 10 | 0.279 | > 10 | Cn1c(=O)c2c(CC(=O)Nc3nc(-c4ccc(OC(F)(F)F)c(Cl)c4)cs3)nsc2n(C)c1=O [Compound 80]
